GI50 and TGI data for eleven compounds are collected here from PubChem BioAssay (NCI).

Some test systems named below: NCI-H460 lung; SF-539 CNS; K-562 leukemia; ACHN renal; KM12 colon; SF-295 CNS; IGROV1 ovarian; HCC-2998 colon.
Common to all, as to assay: growth of human tumour cells (NCI), 48 h

Each structure is given as a SMILES string. Where “and” joins values, the source holds several entries; their conditions need not be identical. Equal entries are not always repeated.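 In this assay, cells in 96-well plates receive the compound at five concentrations for 48 hours. Endpoints are linearly interpolated between the surrounding concentrations. Here, GI50 denotes the concentration required for 50% inhibition of growth. TGI is the concentration that stops growth completely.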

Consider `C/C(=N\Nc1cccc(Cl)n1)c1ccccn1`, for which the GI50 in the assay with NCI-H460 lung was 0.482 µM; in the assay with SF-539 CNS, 0.578 µM; with K-562 leukemia it was 0.574 µM; with ACHN renal, 0.556 µM; in the assay on KM12 colon, 0.548 µM; in the assay with SF-295 CNS, 0.827 µM. Besides, the results for the GI50 with IGROV1 ovarian and in the assay with HCC-2998 colon were 0.533 µM and 0.75 µM, respectively. The TGI is 8.33 µM in the assay with NCI-H460 lung; 4.53 µM in the assay on SF-539 CNS; over 100 µM in the assay with K-562 leukemia; 18.4 µM in the assay with ACHN renal; over 100 µM in the assay with KM12 colon; over 32.3 µM in the assay on SF-295 CNS. The TGI was over 59.1 µM with IGROV1 ovarian and over 100 µM in the assay on HCC-2998 colon.
For `CC[C@H](C)[C@H](NC(=O)C12CC(NC(C)=O)(C1)C2)C(=O)N(C)[C@H](C[C@@H](OC(C)=O)c1nc(C(=O)N[C@@H](Cc2ccccc2)C[C@H](C)C(=O)OC)cs1)C(C)C`, the GI50 with NCI-H460 lung is 0.32 µM; in the assay on SF-539 CNS, 0.438 µM; with K-562 leukemia, 0.101 µM; with ACHN renal it was 1.13 µM; in the assay on KM12 colon, 0.296 µM; in the assay with SF-295 CNS, 0.36 µM. Moreover, the GI50 is 0.502 µM in the assay on IGROV1 ovarian and 0.21 µM in the assay on HCC-2998 colon. Besides, the TGI in the assay with NCI-H460 lung is over 16.7 µM; in the assay on SF-539 CNS, 1.15 µM; with K-562 leukemia, over 16.7 µM; in the assay with ACHN renal, over 16.7 µM; in the assay on KM12 colon it was over 16.7 µM; in the assay with SF-295 CNS it was over 5.25 µM. For the same compound, the TGI in the assay with IGROV1 ovarian and with HCC-2998 colon was over 16.7 µM each time.
Turning to `COc1ccc(-c2cncn2-c2cc(OC)c(OC)c(OC)c2)cc1F`, the GI50 is under 0.01 µM with NCI-H460 lung; under 0.0232 µM with SF-539 CNS; under 0.01 µM in the assay on K-562 leukemia; under 0.01 µM with KM12 colon; under 0.0142 µM in the assay on SF-295 CNS; under 0.0212 µM in the assay on IGROV1 ovarian. In addition, in the assay with HCC-2998 colon, the GI50 was 0.0101 µM. Further, the TGI was over 100 µM in the assay with NCI-H460 lung; over 100 µM in the assay on K-562 leukemia; over 49.8 µM with KM12 colon; 19 µM in the assay with IGROV1 ovarian; 13.4 µM with HCC-2998 colon.
On to `N#CC(C#N)=Cc1ccc(-c2ccc(-c3nc4ccccc4o3)cc2)o1`, for which the GI50 in the assay on NCI-H460 lung is 38.4 µM; in the assay on SF-539 CNS it was 31.1 µM; in the assay on K-562 leukemia it was 19.3 µM; with ACHN renal it was 50.8 µM; in the assay on KM12 colon it was 19.4 µM; in the assay with SF-295 CNS, 30.1 µM. Also, the GI50 is 65.8 µM in the assay on IGROV1 ovarian and 47.1 µM in the assay with HCC-2998 colon. In addition, the TGI in the assay with NCI-H460 lung, with SF-539 CNS, with K-562 leukemia, in the assay with ACHN renal, in the assay with KM12 colon and in the assay on SF-295 CNS was over 100 µM in each case. In addition, the TGI was over 100 µM with IGROV1 ovarian and 96.4 µM in the assay on HCC-2998 colon.
In the case of `c1cnc2c(c1)Nc1cnncc1S2`, the TGI with NCI-H460 lung, in the assay with SF-539 CNS, with K-562 leukemia, in the assay on ACHN renal, with KM12 colon and in the assay with SF-295 CNS was over 100 µM each time. The TGI in the assay on IGROV1 ovarian and with HCC-2998 colon was over 100 µM in each case.
Regarding `N#Cc1c(Oc2ccc(F)c(NC(=O)Cc3cccc(C(F)(F)F)c3)c2)ccc2nc(NC(=O)C3CC3)sc12`, the GI50 with NCI-H460 lung is 0.378 µM; in the assay on SF-539 CNS it was 0.436 µM; with K-562 leukemia it was 0.385 µM; in the assay with ACHN renal, 0.801 µM; with KM12 colon it was 0.765 µM; in the assay with SF-295 CNS, 0.579 µM. Moreover, the GI50 in the assay on IGROV1 ovarian is 0.94 µM; in the assay on HCC-2998 colon it was 0.581 µM. Moreover, the TGI in the assay with NCI-H460 lung was over 100 µM; with SF-539 CNS, over 27.2 µM; with K-562 leukemia, over 100 µM; in the assay on ACHN renal it was over 100 µM; in the assay on KM12 colon it was over 100 µM; in the assay with SF-295 CNS, over 100 µM. The results for the TGI in the assay with IGROV1 ovarian and with HCC-2998 colon were over 44.7 µM and over 100 µM, respectively.
On to `O=C1c2cccc3cc([N+](=O)[O-])cc(c23)C(=O)N1O`, for which the TGI in the assay with NCI-H460 lung was over 100 µM; in the assay on K-562 leukemia it was over 100 µM; in the assay on ACHN renal, over 100 µM; with KM12 colon it was 61.7 µM; with SF-295 CNS, over 100 µM; in the assay on IGROV1 ovarian it was over 100 µM. The compound further registered a TGI with HCC-2998 colon of 65.2 µM.
In the case of `CC(C)(C)C(=O)[CH-]C(=O)C(F)(F)C(F)(F)C(F)(F)F.CC(C)(C)C(=O)[CH-]C(=O)C(F)(F)C(F)(F)C(F)(F)F.[O-]CC1OC(O)C(O)C(O)C1O.[O-]CC1OC(O)C(O)C(O)C1O.[Ti+4]`, the TGI in the assay on NCI-H460 lung, in the assay on SF-539 CNS, in the assay with K-562 leukemia, in the assay on ACHN renal, with KM12 colon and in the assay on SF-295 CNS was over 100 µM in each case. Further, the TGI with IGROV1 ovarian and in the assay with HCC-2998 colon was over 100 µM each time. For the same compound, in the assay on HCC-2998 colon, the GI50 was over 100 µM.
Regarding `COc1cccc(Nc2nccc(Nc3ccc4[nH]ncc4c3)n2)c1`, the GI50 in the assay with NCI-H460 lung was 1.64 µM; in the assay on K-562 leukemia, 1.3 µM; in the assay with KM12 colon it was 1.64 µM; with SF-295 CNS, 1.66 µM; with HCC-2998 colon, 1.79 µM. Moreover, the TGI in the assay on NCI-H460 lung stood at 4.17 µM; in the assay on K-562 leukemia it was 3.89 µM; in the assay with KM12 colon, 4.81 µM; in the assay with SF-295 CNS, 3.17 µM; in the assay on HCC-2998 colon it was 3.36 µM.
As for `CC(C)[O-].CC(C)[O-].[O-]c1cccc2cccnc12.[O-]c1cccc2cccnc12.[Ti+4]`, the GI50 was 97 µM in the assay on SF-539 CNS; 3.04 µM and 3.37 µM with K-562 leukemia; 88.6 µM in the assay on ACHN renal; 21 µM in the assay on KM12 colon; over 100 µM in the assay with SF-295 CNS; 50.4 µM in the assay with HCC-2998 colon. Also, the TGI in the assay on SF-539 CNS is over 100 µM; with K-562 leukemia, over 100 µM; with ACHN renal, over 100 µM; with KM12 colon it was 50 µM; with SF-295 CNS, over 100 µM; in the assay on IGROV1 ovarian, over 100 µM. The compound also displayed a TGI in the assay with HCC-2998 colon of over 100 µM.
In the case of `Oc1[nH]c2ccc(Cl)cc2c1/C=c1/ccc2c(c1)N=C(c1cc(F)cc(F)c1)N=2`, the GI50 with SF-539 CNS is 8.7 µM; in the assay with K-562 leukemia it was 3.12 µM; in the assay with ACHN renal, 7.42 µM; in the assay on KM12 colon it was 3.55 µM; with IGROV1 ovarian it was 6.21 µM; in the assay with HCC-2998 colon, 7.55 µM. Further, the TGI in the assay on SF-539 CNS, with K-562 leukemia, in the assay with ACHN renal, in the assay on KM12 colon, with IGROV1 ovarian and in the assay with HCC-2998 colon was over 100 µM in each case.
